From article PMC10626578, “Designed switch from covalent to non-covalent inhibitors of carboxylesterase Notum activity” (European Journal of Medicinal Chemistry, 2023)
Converted amounts (≈) assume the structure as drawn. “And” between values parts separate entries of the source, which are not always exact repeats. Equal entries are not always repeated. Where two headings read alike, the source gives them in different places.

What was measured:
[1] = biological target: T1, Notum (core, 81–451C330S) (Homo sapiens, UniProt Q6P988, C330S); test: Notum-OPTS biochemical assay, Notum (81–451C330S); conditions: for fold increase in Notum inhibition over 3a: vs 3a, more potent
T1 construct: high-throughput biochemical assay with Notum (81–451C330S) and OPTS as a synthetic fluorescent substrate; made in house
T1 sequence (Q6P988 81-451 C330S): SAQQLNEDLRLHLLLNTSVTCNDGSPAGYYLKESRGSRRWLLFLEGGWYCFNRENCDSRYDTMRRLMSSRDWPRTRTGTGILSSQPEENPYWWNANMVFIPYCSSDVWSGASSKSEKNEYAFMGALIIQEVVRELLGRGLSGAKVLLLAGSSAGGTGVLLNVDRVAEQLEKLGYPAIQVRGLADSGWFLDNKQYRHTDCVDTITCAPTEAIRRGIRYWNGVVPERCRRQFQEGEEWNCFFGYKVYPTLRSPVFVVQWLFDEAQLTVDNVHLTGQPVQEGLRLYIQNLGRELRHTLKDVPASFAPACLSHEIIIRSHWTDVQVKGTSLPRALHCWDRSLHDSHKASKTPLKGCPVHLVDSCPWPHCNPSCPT
Description: Notum inhibitors 3–5 (Table 1, Table 2, Table 3, Table 4) were either purchased or prepared using established synthetic methods from readily available starting materials (Scheme 1). Where necessary, the synthesis of many of these amines (e.g. 6) have been reported previously and full details of their preparation have been included in the Experimental Section. Notum inhibition activity was determined using the standard Notum-OPTS biochemical assay using IC50 values. These values were used to compare relative activities with covalent inhibitors under carefully regulated assay conditions. […] Selected inhibitors were screened for inhibition of Notum activity in a TCF/LEF Reporter (Luciferase) cell line with exogenous WNT3a and Notum, and soaked into Notum crystals to determine their binding modes and evidence of MoA.
(§1) Methods have been described in detail.

[2] = Stability in human liver microsomes; format: in vitro ADME; conditions: for half-life: human, read-out: HLM Stability t1/2
Description: (§2) Selected compounds were routinely screened for aqueous solubility in PBS (pH 7.4), transit performance in MDCK-MDR1 cell lines for permeability, and metabolic stability in MLM and HLM as a measure of clearance. The main metabolites and routes of metabolism of 4y were determined in MLM. Assay protocols and additional data are presented in the Supplementary Material (Tables S1–S7). ADME studies reported in this work were performed by WuXi AppTec (Shanghai, China).
(§3) Representative assay protocols have been described in detail. ^1,2

Notum (full length) = biological target: T2, Notum (full length) (Homo sapiens, UniProt Q6P988); test: Notum-OPTS biochemical assay, full length Notum
T2 construct: Screening 4w and 4y in the biochemical assay using full length Notum and OPTS
T2 sequence (Q6P988 20-496): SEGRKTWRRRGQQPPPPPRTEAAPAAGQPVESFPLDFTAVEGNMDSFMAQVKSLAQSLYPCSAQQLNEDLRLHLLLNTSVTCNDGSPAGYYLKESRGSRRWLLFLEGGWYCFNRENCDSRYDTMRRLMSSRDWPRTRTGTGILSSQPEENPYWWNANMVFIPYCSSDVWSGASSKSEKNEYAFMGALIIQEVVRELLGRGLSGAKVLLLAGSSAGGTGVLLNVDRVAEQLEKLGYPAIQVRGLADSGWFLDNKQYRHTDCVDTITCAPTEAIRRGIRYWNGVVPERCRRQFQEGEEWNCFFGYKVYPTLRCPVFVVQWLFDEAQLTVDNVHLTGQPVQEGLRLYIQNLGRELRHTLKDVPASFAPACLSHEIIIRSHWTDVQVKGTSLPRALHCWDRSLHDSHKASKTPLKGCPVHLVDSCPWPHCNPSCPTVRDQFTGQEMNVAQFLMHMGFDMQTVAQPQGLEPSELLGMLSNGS
Description: (§4) Early leads 4v, 4w and 4y were then evaluated in additional pharmacology and ADME screens (Table 3). […] Screening 4w and 4y in the biochemical assay using full length Notum and OPTS confirmed potent inhibition of Notum activity.
as §1

Notum = biological target: T3, Notum (Homo sapiens, UniProt Q6P988); test: TCF/LEF Reporter (Luciferase) cell line with exogenous WNT3a and Notum; format: cell-based; conditions: for restoration of Wnt signalling in the presence of Notum: concentration-response curves up to 10 μM
T3 construct: host or cells: TCF/LEF Reporter (Luciferase) cell line; Notum added exogenously
T3 sequence (Q6P988 20-496): T2 sequence (Q6P988 20-496)
Description: Notum inhibitors 3–5 (Table 1, Table 2, Table 3, Table 4) were either purchased or prepared using established synthetic methods from readily available starting materials (Scheme 1). Where necessary, the synthesis of many of these amines (e.g. 6) have been reported previously and full details of their preparation have been included in the Experimental Section. Notum inhibition activity was determined using the standard Notum-OPTS biochemical assay using IC50 values. These values were used to compare relative activities with covalent inhibitors under carefully regulated assay conditions. Confirmed inhibitors were routinely screened in in vitro ADME assays. Selected inhibitors were screened for inhibition of Notum activity in a TCF/LEF Reporter (Luciferase) cell line with exogenous WNT3a and Notum, and soaked into Notum crystals to determine their binding modes and evidence of MoA. […]
as §1

[3] = Aqueous solubility in PBS (pH 7.4); format: physicochemical; conditions: for solubility thermodynamic: PBS, Table S2, pH 7.4, n = 2, * below lower limit of quantification, read-out: Thermodynamic Solubility @ RT; for solubility: Table 3, PBS pH 7.4
Description: as §2, §3

[4] = Stability in mouse liver microsomes; format: in vitro ADME; conditions: for microsomal CLint at 1 h: Table 3, read-out: MLM Clint
Description: as §2, §3

[5] = Metabolite identification of 4y in mouse liver microsomes (LC-UV-MS); format: in vitro ADME; conditions: 4y at 10 µM incubated with MLM at 37 °C for 60 min; share of total drug-related components
Description: The test compound 4y at 10 µM was incubated with mouse liver microsomes (MLM) at 37 °C for 60 min. The positive control, 7-ethoxycoumarin (7-EC) at 10 µM, was run concurrently to assess Phase I metabolic activities in liver microsomes. […] After incubation, the samples were analysed by LC-UV-MS. The structures of the metabolites were proposed based on the interpretation of their MS and MS^2 data.
The relative abundance of 4y and each of the putative metabolites were calculated using peak area (peak area under the UV spectrum at 250-280 nm) of individual metabolite relative to the total area of all detected drug-related components (Table S6).

[6] = tested on: TCF/LEF Reporter (Luciferase) cell line; test: TCF/LEF reporter (Luciferase) assay with WNT3A in the absence of Notum; format: cell-based; conditions: up to 10 μM
Description: as §4
Figure S4D. Notum TCF/LEF reporter (Luciferase) data with WNT3A (200 ng/mL) in the absence of Notum. Representative response-concentration curves are for 4w (2 of 6 shown) from a larger data set for compounds 3-5. Examples are from different screening runs.

[7] = Distribution coefficient LogD7.4, shake flask method; format: physicochemical; conditions: pH 7.4; Table 3
Description: Molecular properties (MW, clogP) were calculated with ChemDraw Professional v16.0.1.4(77). Distribution coefficients (LogD7.4) were measured using the shake flask method.
Representative assay protocols have been described in detail.^1,^2

[8] = Stability in mouse plasma; format: in vitro ADME
Text: as §3

[9] = Permeability using MDR1-MDCKII cell monolayer; format: in vitro ADME; conditions: dog, MDCK-MDR1, Table S3, mean n=2
Description: as §2, §3

[10] = tested on: MDR1-MDCKII cell monolayer; test: Permeability using MDR1-MDCKII cell monolayer; format: in vitro ADME; conditions: Table 3; efflux ratio
Description: as §2, §3

MDR1 = test: Permeability using MDR1-MDCKII cell monolayer; format: in vitro ADME; conditions: dog
Description: as §2, §3

[11] = Table 2, mean ± s.d. of n = 4–12, >10 = 20–50% inhibition @ 10 μM, read-out: Notum IC50
[12] = Notum (core, 81–451C330S), read-out: OPTS, IC50
[13] = Notum (full length), read-out: OPTS, IC50
[14] = Notum (core, 81–451C330S), restoration of Wnt signalling, read-out: TCF-LEF, EC50
[15] = mouse, read-out: MLM Stability t1/2
[16] = Table 4, mean ± s.d. of n = 4–8, >10 = 20–50% inhibition @ 10 μM, read-out: Notum IC50

Structure (SMILES) | IC50 [1, 11] | HLM Stability Cli [2] | half-life [2] | IC50 [1, 12] | EC50 (Notum; [14]) | restoration of Wnt signalling in the presence of Notum (Notum) | solubility thermodynamic [3] | solubility [3] | MLM Stability Cli [4] | microsomal CLint at 1 h [4] | half-life [4, 15] | assay interference or cell toxicity in the absence of Notum [6] | further results
CC(=O)N1CCc2c1cccc2C(F)(F)F [Compound 4o, 1-(4-(Trifluoromethyl)indolin-1-yl)ethan-1-one] | 30 ± 4 nM | 900 µL/min/mg protein | 1.5 min | – | – | – | – | – | – | – | – | – | –
CC(=O)N1CC2(CC2)c2c(Cl)cccc21 [Compound 4y, 1-(4′-Chlorospiro[cyclopropane-1,3′-indolin]-1′-yl)ethan-1-one] | 3.5 ± 0.6 nM | – | – | 3.5 ± 0.6 nM | 35 ± 13 nM | restored Wnt signalling | 0.186 µg/mL (≈ 0.839 µM) | 0.2 µg/mL (≈ 0.902 µM) | 895 µL/min/mg protein | 900 µL/min/mg | 1.5 min | not by assay interference or cell toxicity | IC50 (Notum (full length); [13]): 11 ± 1.4 nM; Relative Abundance (UV peak area %Total) [5]: 30% and 30.48%
CC(=O)N1CCc2c(Cl)cccc21 [Compound 4g, 1-(4-Chloroindolin-1-yl)ethan-1-one] | 40 ± 24 nM | 640 µL/min/mg protein | 2.2 min | – | – | – | – | – | – | – | – | – | fold increase in Notum inhibition over 3a [1]: 10 fold
CC(=O)N1CCc2c1ccc(Cl)c2C(F)(F)F [Compound 4v, 1-(5-Chloro-4-(trifluoromethyl)indolin-1-yl)ethan-1-one] | 1.3 ± 0.3 nM | – | – | 1.3 ± 0.3 nM | 28 ± 20 nM | restored Wnt signalling | 1.55 µg/mL (≈ 5.88 µM) | 1.6 µg/mL (≈ 6.07 µM) | 650 µL/min/mg protein | 650 µL/min/mg | 2.1 min | not by assay interference or cell toxicity | –
CC(=O)N1CCc2c1ccc(Cl)c2Cl [Compound 4w, 1-(4,5-Dichloroindolin-1-yl)ethan-1-one] | 2.5 ± 0.6 nM | 138 µL/min/mg protein | 10 min | 2.5 ± 0.6 nM | 22 ± 14 nM | restored Wnt signalling | < 0.36 µg/mL | 0.4 µg/mL (≈ 1.74 µM) | 1150 µL/min/mg protein | 1200 µL/min/mg | 1.2 min | not by assay interference or cell toxicity | IC50 ([1]; Figure S4A, Notum (81-451 C330S) OPTS, 4 of 11 curves shown, read-out: IC50, single concentration-response curve): 2.8 nM and 3.7 nM and 2.3 nM and 3.1 nM; LE ([1]; ligand efficiency from Notum OPTS IC50): 0.85; LLE ([1]; lipophilic ligand efficiency from Notum OPTS IC50 and clogP): 5.9; IC50 (Notum (full length); Figure S4B, Notum (full length) OPTS, 3 of 3 curves shown, read-out: IC50, single concentration-response curve): 5.3 nM and 4.1 nM and 5.4 nM; IC50 (Notum (full length); [13]): 4.9 ± 0.6 nM; EC50 (Notum; Figure S4C, WNT3A (200 ng/mL), 6 of 6 curves shown, read-out: EC50, single concentration-response curve): 5.5 nM and 4.3 nM and 15.2 nM and 39 nM and 29.1 nM and 36.8 nM; logD [7]: 3.1; microsomal CLint at 1 h ([2]; Table 3, read-out: HLM Clint): 140 µL/min/mg; half-life ([8]; Table S5, read-out: Mouse plasma Stability t1/2): > 280 min; half-life ([8]; read-out: mouse plasma stability t½): > 240 min; recovery ([9]; read-out: A to B % Recovery): 75%; recovery ([9]; read-out: B to A % Recovery): 81%; MDCK-MDR1 ER [10]: 0.60; Papp (MDR1; MDCK-MDR1, Table 3, apical to basal, read-out: MDCK-MDR1 AB Papp): 35 ×10⁻⁶ cm/s; Papp (MDR1; MDCK-MDR1, Table 3, basal to apical, read-out: MDCK-MDR1 BA Papp): 21 ×10⁻⁶ cm/s; efflux ratio (MDR1; MDCK-MDR1, Table S3, mean n=2): 0.59; Papp (MDR1; MDCK-MDR1, Table S3, mean n=2, read-out: Apical to Basal Papp): 35.5 ×10⁻⁶ cm/s; Papp (MDR1; MDCK-MDR1, Table S3, mean n=2, read-out: Basal to Apical Papp): 21.1 ×10⁻⁶ cm/s
O=C1CCC2Cc3ccccc3N12 (stereo not drawn) [Compound 5f, 1,2,9,9a-Tetrahydro-3H-pyrrolo[1,2-a]indol-3-one] | – | – | – | – | – | – | 577 µg/mL (≈ 3330 µM) | – | 73 µL/min/mg protein | – | 19 min | – | IC50 [1, 16]: 180 ± 20 nM; fold increase in Notum inhibition over 3a [1]: 2 fold; half-life at 1 h [4, 15]: 18 min
CC(=O)n1ccc2c(Cl)c(Cl)ccc21 [Compound 5d, 1-(4,5-Dichloro-1H-indol-1-yl)ethan-1-one] | – | – | – | – | – | – | < 0.36 µg/mL | – | 1320 µL/min/mg protein | – | 1.1 min | – | IC50 [1, 16]: 31 ± 4 nM
